From ChEMBL document CHEMBL1130933, “Structure-based design of N-[2-(1-piperidinylethyl)]-N'-[2-(5-bromopyridyl)]-thiourea and N-[2-(1-piperazinylethyl)]-N'-[2-(5-bromopyridyl)]-thiourea as potent non-nucleoside inhibitors of HIV-1 reverse transcriptase” (Bioorg Med Chem Lett, 1998) come the findings set out here.

What all share (type): functional
Experiment [1] is described as follows: Compound was evaluated for cellular proliferation (on viability of peripheral blood mononuclear cells) using microculture tetrazolium assay (MTA). The settings on record: Homo sapiens.
The nature of experiment [2]: Inhibitory effect on p24 production in HIV-infected peripheral blood mononuclear cells. The conditions noted are these: Homo sapiens.
Experiment [3] is described as follows: Selective index was evaluated from inhibitory concentrations of compound.

Turning to `S=C(NCCc1ccccn1)Nc1ccc(Br)cn1` [TROVIRDINE], the 50% inhibitory concentration (IC50) in experiment [1] was > 100000 nM; in experiment [2] it was 7 nM. For the same compound, the Selectivity index in experiment [3] is > 10000.
With `Cc1cn([C@H]2C[C@H](N=[N+]=[N-])[C@@H](CO)O2)c(=O)[nH]c1=O` [ZIDOVUDINE], the figures for the IC50 in experiment [1] and in experiment [2] were 50000 nM and 6 nM, respectively.
Turning to `S=C(NCCN1CCNCC1)Nc1ccc(Br)cn1`, the values for the half-inhibitory concentration (IC50) in experiment [1] and in experiment [2] were > 100000 nM and 2 nM, respectively. In experiment [3], the Selectivity index is > 50000.
In the case of `S=C(NCCN1CCCCC1)Nc1ccc(Br)cn1`, the half-maximal inhibitory concentration (IC50) was > 100000 nM in experiment [1] and < 1 nM in experiment [2]. Moreover, the Selectivity index in experiment [3] is > 100000.

One may read the IC50 as the point on the concentration scale where inhibition reaches its midpoint. Read a low IC50 as inhibition by little substance.
